Bounds are passed on as bounds.

T1 sequence (P00533 whole entry): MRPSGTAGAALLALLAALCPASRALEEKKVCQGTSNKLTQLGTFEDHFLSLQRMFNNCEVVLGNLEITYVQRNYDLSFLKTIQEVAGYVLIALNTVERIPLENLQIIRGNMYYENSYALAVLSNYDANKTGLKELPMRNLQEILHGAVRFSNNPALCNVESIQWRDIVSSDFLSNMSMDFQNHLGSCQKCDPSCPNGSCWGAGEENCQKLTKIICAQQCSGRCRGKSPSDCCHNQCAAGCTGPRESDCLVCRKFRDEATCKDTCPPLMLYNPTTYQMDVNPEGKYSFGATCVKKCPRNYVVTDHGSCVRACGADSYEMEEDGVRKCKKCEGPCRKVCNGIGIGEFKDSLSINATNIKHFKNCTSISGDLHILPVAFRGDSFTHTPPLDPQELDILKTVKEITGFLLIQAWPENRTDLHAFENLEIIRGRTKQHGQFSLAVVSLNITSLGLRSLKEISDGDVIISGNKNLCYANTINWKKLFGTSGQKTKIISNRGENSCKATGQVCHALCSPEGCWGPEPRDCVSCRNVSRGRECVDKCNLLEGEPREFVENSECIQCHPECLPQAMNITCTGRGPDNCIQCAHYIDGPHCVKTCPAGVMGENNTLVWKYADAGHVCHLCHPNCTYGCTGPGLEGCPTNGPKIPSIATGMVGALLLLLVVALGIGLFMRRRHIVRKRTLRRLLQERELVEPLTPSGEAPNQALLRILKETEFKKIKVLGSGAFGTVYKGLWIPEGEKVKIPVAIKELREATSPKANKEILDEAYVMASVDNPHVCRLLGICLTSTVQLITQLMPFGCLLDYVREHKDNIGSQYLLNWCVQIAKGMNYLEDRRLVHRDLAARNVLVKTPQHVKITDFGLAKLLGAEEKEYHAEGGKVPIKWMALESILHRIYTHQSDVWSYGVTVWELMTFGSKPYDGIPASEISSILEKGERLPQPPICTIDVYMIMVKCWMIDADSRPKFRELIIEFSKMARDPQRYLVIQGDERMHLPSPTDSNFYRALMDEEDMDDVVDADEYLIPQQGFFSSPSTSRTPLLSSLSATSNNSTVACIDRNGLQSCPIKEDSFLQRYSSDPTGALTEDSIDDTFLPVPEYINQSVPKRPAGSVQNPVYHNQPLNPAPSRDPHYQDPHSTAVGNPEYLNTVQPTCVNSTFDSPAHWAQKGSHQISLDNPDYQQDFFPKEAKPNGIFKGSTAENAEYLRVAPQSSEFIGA

One assay concerns the target T1, Epidermal growth factor receptor (Homo sapiens, UniProt P00533). Put plainly: Inhibition of EGFR (unknown origin) by Z'-LYTE assay.
One may read the IC50 as the concentration at which inhibition is half-maximal. A higher IC50 goes with weaker potency in that assay. In turn, `COc1ccccc1-c1cc2c(NCc3ccccn3)ncnc2s1` displayed an IC50 of 183 nM.
On the same count and under the same terms, the same measure for `COc1ccccc1-c1cc2c(N[C@H](C)c3ccccn3)ncnc2s1`: 153 nM; for `Fc1ccc(Nc2ncnc3sc(Br)cc23)cc1Cl`: 53 nM.
Regarding `C#Cc1cccc(Nc2ncnc3sc(Br)cc23)c1`, the IC50 is 23 nM.
Turning to `Brc1cc2c(Nc3cccc(OCc4ccccc4)c3)ncnc2s1`, the IC50 was more than 10000 nM.
The same measure, in the same setting: the value for `Fc1cccc(COc2ccc(Nc3ncnc4sc(Br)cc34)cc2Cl)c1` was 257 nM; that for `COc1ccccc1-c1cc2c(NCc3ccccc3)ncnc2s1` was 17 nM.
Regarding `COc1ccccc1-c1cc2c(N[C@H](C)c3ccccc3)ncnc2s1`, the IC50 worked out at 9 nM.
Still for that read-out and setting: the value for `COc1ccccc1-c1cc2c(N[C@@H](C)c3ccccc3)ncnc2s1` was 1860 nM.
On the same count and under the same terms, the value for `COc1ccccc1-c1cc2c(N[C@H](CO)c3ccccc3)ncnc2s1` was 1 nM; that for `COc1ccccc1-c1cc2c(N[C@@H](CO)c3ccccc3)ncnc2s1` was 629 nM; that for `COC[C@@H](Nc1ncnc2sc(-c3ccccc3OC)cc12)c1ccccc1` was 23 nM.
On the same count and under the same terms, the same measure for `COc1ccccc1-c1cc2c(N[C@H](C)c3ccc(F)cc3)ncnc2s1`: 27 nM; for `COc1ccccc1-c1cc2c(NCc3ccncc3)ncnc2s1`: 108 nM.
`COc1ccccc1-c1cc2c(NCc3cccnc3)ncnc2s1`: the IC50 was 275 nM.
Molecule `Brc1cc2c(NCc3ccccc3)ncnc2s1` had an IC50 of 241 nM.
In turn, `C[C@@H](Nc1ncnc2sc(Br)cc12)c1ccccc1` came in with an IC50 of 38 nM.
Still for that read-out and setting: the same measure for `C[C@H](Nc1ncnc2sc(Br)cc12)c1ccccc1`: more than 10000 nM.
Still for that read-out and setting: the same measure for `OC[C@@H](Nc1ncnc2sc(Br)cc12)c1ccccc1`: 36 nM.
In turn, `OC[C@H](Nc1ncnc2sc(Br)cc12)c1ccccc1` came in with a 50% inhibitory concentration (IC50) of more than 10000 nM.
The same measure, in the same setting: the same measure for `COC[C@@H](Nc1ncnc2sc(Br)cc12)c1ccccc1`: 262 nM; for `COC[C@H](Nc1ncnc2sc(Br)cc12)c1ccccc1`: more than 10000 nM; for `CC[C@@H](Nc1ncnc2sc(Br)cc12)c1ccccc1`: 183 nM.
On the same count and under the same terms, the value for `C[C@@H](Nc1ncnc2sc(Br)cc12)c1ccc(F)cc1` was 150 nM; that for `Brc1cc2c(NCc3ccncc3)ncnc2s1` was 3880 nM.
The molecule `Brc1cc2c(NCc3cccnc3)ncnc2s1` returned an IC50 of more than 10000 nM.
`Brc1cc2c(NCc3ccccn3)ncnc2s1` displayed an IC50 of 7900 nM.
The same measure, in the same setting: the same measure for `C[C@@H](Nc1ncnc2sc(Br)cc12)c1ccccn1`: 2080 nM; for `Brc1cc2c(NCc3cccs3)ncnc2s1`: 1370 nM.
On the same count and under the same terms, the value for `C[C@@H](Nc1ncnc2sc(Br)cc12)c1cccs1` was 415 nM; that for `Brc1cc2c(Nc3ccccc3)ncnc2s1` was 80 nM.
The same measure, in the same setting: the value for `COc1ccccc1-c1cc2c(NCc3cccs3)ncnc2s1` was 170 nM; that for `COc1ccccc1-c1cc2c(N[C@H](C)c3cccs3)ncnc2s1` was 55 nM; that for `COc1ccccc1-c1cc2c(Nc3ccccc3)ncnc2s1` was 173 nM.
`COc1ccccc1-c1cc2c(Nc3ccc(F)c(Cl)c3)ncnc2s1` registered a half-inhibitory concentration (IC50) of 5 nM.
Still for that read-out and setting: the same measure for `C#Cc1cccc(Nc2ncnc3sc(-c4ccccc4OC)cc23)c1`: 18 nM; for `COc1ccccc1-c1cc2c(NC(C)c3ccccc3)ncnc2s1` (racemic): 19 nM; for `COc1ccccc1-c1cc2c(NC(CO)c3ccccc3)ncnc2s1` (racemic): 8 nM.
Take `CC(Nc1ncnc2sc(Br)cc12)c1ccccc1` (racemic): the concentration for half-maximal inhibition (IC50) came to 156 nM.
On the same count and under the same terms, the value for `OCC(Nc1ncnc2sc(Br)cc12)c1ccccc1` (racemic) was 83 nM.

A further assay has as its target T1, Epidermal growth factor receptor. Put plainly: Inhibition of EGFR (unknown origin) using Poly(Glu:Tyr) 4:1 as substrate after 12 to 16 hrs.
`OC[C@@H](Nc1ncnc2sc(-c3ccc(CN4CCNCC4)cc3)cc12)c1ccccc1` showed an IC50 of 600 nM.
The same measure, in the same setting: the value for `OCCN1CCN(Cc2ccc(-c3cc4c(N[C@H](CO)c5ccccc5)ncnc4s3)cc2)CC1` was 600 nM; that for `O=C(c1ccc(-c2cc3c(N[C@H](CO)c4ccccc4)ncnc3s2)cc1)N1CCN(CCO)CC1` was more than 5000 nM.

The target is the same in a further assay. Put plainly: Inhibition of EGFR (unknown origin) after 40 mins by scintillation proximity assay.
Consider `Fc1cccc(COc2ccc(Nc3ncnc4sc(C#CC5CCCN5)cc34)cc2Cl)c1` (centres undefined), for which the IC50 was found to be 109 nM.

The values are drawn from ChEMBL document CHEMBL3414443, “Truncated structures used in search for new lead compounds and in a retrospective analysis of thienopyrimidine-based EGFR inhibitors” (Eur J Med Chem, 2015).
